Experimental data from patent US20090264433A1, “Compounds, Compositions and Methods Comprising Triazine Derivatives” (Institute for OneWorld Health, priority 2008, published 2009).
Where a name gives a salt, the structure may show the parent alone.

Molecular target: T1, CFTR channel in human colonic T84 cells (Homo sapiens, UniProt P13569)
T1 construct: results in the phosphorylation and opening of CFTR anion channels; host or cells: human colonic T84 cells
Assay: T84 assay (FLIPR membrane potential dye, forskolin/IBMX-stimulated CFTR)
Assay type: cell-based
Conditions: average of at least 2 runs unless annotated n = 1
Procedure: (§1) For example, Human colonic T84 cells can be acquired from the European Collection of Cell Cultures (ECACC) and grown in standard culture conditions as described by the supplier. On the day before assay 25,000 T84 cells per well are plated into standard black walled, clear bottom 384-well assay plates in standard growth medium consisting of DMEM:F12 with 10% FBS and incubated overnight. On the day of the assay the plates are washed using a standard assay buffer (HBSS with 10 mM Hepes) and incubated for 15 minutes in serum free cell culture medium before the addition of a commercially available membrane potential sensitive fluorescent dye (FLIPR Red membrane potential dye, Molecular Devices Corporation). T84 cells are incubated with the FLIPR Red membrane potential dye for 45 minutes in the presence and absence of test compound before being transferred to a commercially available fluorescence imaging plate reader (FLIPR384, Molecular Devices Corporation). Fluorescence levels are monitored continuously every second for 150 seconds; after an initial 10 second baseline, CFTR channel activity is stimulated through the addition of 10 μM forskolin in the presence of 100 μM of the phosphodiesterase inhibitor iso-butyl-methylxanthine (IBMX). Addition of the forskolin leads to the activation of intracellular adenylyl cylase 1, elevating cAMP levels and results in the phosphorylation and opening of CFTR anion channels. CFTR channel opening causes chloride ion efflux and subsequent depolarization of the cells, which is measured by an increase in fluorescence. CFTR inhibitor compounds prevent cell depolarization and the associated increase in fluorescence.
as §1, with “Human colonic” for “For example, Human colonic”, “T84 cells are acquired from” for “T84 cells can be acquired from”, “(ECACC) and are grown in” for “(ECACC) and grown in”

T1 sequence (P13569 whole entry): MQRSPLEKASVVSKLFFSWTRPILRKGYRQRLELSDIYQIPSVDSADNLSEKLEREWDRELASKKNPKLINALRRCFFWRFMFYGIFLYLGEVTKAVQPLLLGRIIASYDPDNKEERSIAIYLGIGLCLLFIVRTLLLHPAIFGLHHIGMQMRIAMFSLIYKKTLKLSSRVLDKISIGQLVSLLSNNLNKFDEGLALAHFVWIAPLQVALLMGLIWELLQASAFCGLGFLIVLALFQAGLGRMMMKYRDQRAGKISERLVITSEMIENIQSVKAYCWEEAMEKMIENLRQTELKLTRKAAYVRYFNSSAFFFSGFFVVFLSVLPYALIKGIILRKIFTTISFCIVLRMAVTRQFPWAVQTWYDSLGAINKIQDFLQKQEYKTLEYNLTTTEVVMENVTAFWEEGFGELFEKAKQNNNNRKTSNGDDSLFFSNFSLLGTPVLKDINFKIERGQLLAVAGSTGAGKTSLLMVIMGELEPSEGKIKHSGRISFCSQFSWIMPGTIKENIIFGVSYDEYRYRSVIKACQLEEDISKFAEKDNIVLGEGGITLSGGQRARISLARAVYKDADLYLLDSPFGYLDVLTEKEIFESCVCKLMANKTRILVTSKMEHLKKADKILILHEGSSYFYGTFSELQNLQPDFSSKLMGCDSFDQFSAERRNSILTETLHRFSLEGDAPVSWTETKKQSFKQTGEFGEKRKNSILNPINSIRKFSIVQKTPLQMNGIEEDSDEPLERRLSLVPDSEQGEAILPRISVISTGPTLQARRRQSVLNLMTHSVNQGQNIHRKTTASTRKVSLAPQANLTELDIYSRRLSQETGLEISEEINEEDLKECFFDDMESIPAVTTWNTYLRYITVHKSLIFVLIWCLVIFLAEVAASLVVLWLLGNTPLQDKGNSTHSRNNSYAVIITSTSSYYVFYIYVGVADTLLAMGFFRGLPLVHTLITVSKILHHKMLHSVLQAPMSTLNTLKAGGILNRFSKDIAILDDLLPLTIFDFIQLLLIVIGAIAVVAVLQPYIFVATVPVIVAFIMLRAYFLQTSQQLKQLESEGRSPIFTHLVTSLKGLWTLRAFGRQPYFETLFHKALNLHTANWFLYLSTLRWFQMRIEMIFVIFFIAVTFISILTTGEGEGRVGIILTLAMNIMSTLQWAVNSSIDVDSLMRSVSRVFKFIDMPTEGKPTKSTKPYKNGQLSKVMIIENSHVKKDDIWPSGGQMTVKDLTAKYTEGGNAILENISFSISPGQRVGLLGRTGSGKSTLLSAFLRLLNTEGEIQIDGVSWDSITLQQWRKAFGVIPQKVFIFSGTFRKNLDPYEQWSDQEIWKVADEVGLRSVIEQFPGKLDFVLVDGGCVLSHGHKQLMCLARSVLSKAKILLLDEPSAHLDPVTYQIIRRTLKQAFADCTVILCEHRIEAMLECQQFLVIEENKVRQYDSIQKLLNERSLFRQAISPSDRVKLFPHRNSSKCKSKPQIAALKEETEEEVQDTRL

SMILES | IC50
Oc1c(Br)cc(-c2cnc(COc3ccc(-c4ccccc4)cc3)nn2)cc1Br [Compound 55, 4-(3-((biphenyl-4-yloxy)methyl)-1,2,4-triazin-6-yl)-2,6-dibromophenol] | 22.9 µM
OCCN(Cc1ccccc1)Cc1ccc(COc2ncc(-c3cc(Cl)c(O)c(Cl)c3)nn2)cc1 [Compound 159, 4-(3-(4-((benzyl(2-hydroxyethyl)amino)methyl)benzyloxy)-1,2,4-triazin-6-yl)-2,6-dichlorophenol] | 3.37 µM
Oc1c(Br)cc(-c2cnc(OCc3ccc(Br)cc3)nn2)cc1Br [Compound 24, 2,6-Dibromo-4-(3-(4-bromobenzyloxy)-1,2,4-triazin-6-yl)phenol] | 3.02 µM
Oc1c(Br)cc(-c2cnc(OC3CCc4ccccc4C3)nn2)cc1Br (centres unmarked) [Compound 108, 2,6-dibromo-4-(3-(1,2,3,4-tetrahydronaphthalen-2-yloxy)-1,2,4-triazin-6-yl)phenol] | 1.18 µM
CNC(=O)C1Cc2ccccc2CN1Cc1ccc(COc2ncc(-c3cc(Cl)c(O)c(Cl)c3)nn2)cc1 (centres unmarked) [Compound 185, 2-(4-((6-(3,5-dichloro-4-hydroxyphenyl)-1,2,4-triazin-3-yloxy)methyl)benzyl)-N-methyl-1,2,3,4-tetrahydroisoquinoline-3-carboxamide] | 4.64 µM
OCCN(Cc1cccnc1)c1ncc(-c2cc(Cl)c(O)c(Cl)c2)nn1 [Compound 160, 2,6-dichloro-4-(3-((2-hydroxyethyl)(pyridin-3-ylmethyl)amino)-1,2,4-triazin-6-yl)phenol] | 22.4 µM
Oc1c(Cl)cc(-c2cnc(OCc3ccc(CN4CCC(Cc5ccccc5)CC4)cc3)nn2)cc1Cl [Compound 168, 4-(3-(4-((4-benzylpiperidin-1-yl)methyl)benzyloxy)-1,2,4-triazin-6-yl)-2,6-dichlorophenol] | 13.9 µM
Oc1c(Br)cc(-c2cnc(OCc3ccccc3)nn2)cc1Br [Compound 19, 4-(3-(benzyloxy)-1,2,4-triazin-6-yl)-2,6-dibromophenol] | 1.37 µM
Oc1c(Br)cc(-c2cnc(OCCc3ccc(Cl)c(Cl)c3)nn2)cc1Br [Compound 99, 2,6-dibromo-4-(3-(3,4-dichlorophenethoxy)-1,2,4-triazin-6-yl)phenol] | 0.26 µM
CN(Cc1ccc(COc2ncc(-c3cc(Cl)c(O)c(Cl)c3)nn2)cc1)Cc1ccc(-c2cncnc2)cc1 [Compound 207, 2,6-dichloro-4-(3-(4-((methyl(4-(pyrimidin-5-yl)benzyl)amino)methyl)benzyl-oxy)-1,2,4-triazin-6-yl)phenol] | 2.99 µM
Oc1c(Br)cc(-c2cnc(Cc3cccc4ccccc34)nn2)cc1Br [Compound 130, 2,6-dibromo-4-(3-(naphthalen-1-ylmethyl)-1,2,4-triazin-6-yl)phenol] | 28.9 µM
O=C(O)c1ccccc1N1CCN(Cc2ccc(COc3ncc(-c4cc(Cl)c(O)c(Cl)c4)nn3)cc2)CC1 [Compound 144, 2-(4-(4-((6-(3,5-dichloro-4-hydroxyphenyl)-1,2,4-triazin-3-yloxy)methyl)benzyl)piperazin-1-yl)benzic acid] | 28.6 µM
Oc1c(Cl)cc(-c2cnc(OCCNCc3ccccc3)nn2)cc1Cl [Compound 124, 4-(3-(2-(benzylamino)ethoxy)-1,2,4-triazin-6-yl)-2,6-dichlorophenol] | 1.98 µM
CN(C)c1cccc(COc2ncc(-c3cc(Br)c(O)c(Br)c3)nn2)c1 [Compound 17, 2,6-dibromo-4-(3-(3-(dimethylamino)benzyloxy)-1,2,4-triazin-6-yl)phenol] | 1.17 µM
Oc1c(Cl)cc(-c2cnc(OCc3ccc(CN4CCC(C(O)(c5ccccc5)c5ccccc5)CC4)cc3)nn2)cc1Cl [Compound 174, 2,6-dichloro-4-(3-(4-((4-(hydroxydiphenylmethyl)piperidin-1-yl)methyl)benzyloxy)-1,2,4-triazin-6-yl)phenol, formate salt] | 15.1 µM
CN(Cc1ccc(COc2ncc(-c3cc(Cl)c(O)c(Cl)c3)nn2)cc1)Cc1ccc2ncccc2c1 [Compound 189, 2,6-dichloro-4-(3-(4-((methyl(quinolin-6-ylmethyl)amino)methyl)benzyl-oxy)-1,2,4-triazin-6-yl)phenol] | 4.72 µM

SMILES | IC50
Oc1c(Br)cc(-c2cnc(OCc3ccc(-c4ccccc4)cc3)nn2)cc1Br [Compound 14, 4-(3-(biphenyl-4-ylmethoxy)-1,2,4-triazin-6-yl)-2,6-dibromophenol] | 0.89 µM
Oc1c(Cl)cc(-c2cnc(OCc3ccc(CN(Cc4ccccc4)Cc4ccccc4)cc3)nn2)cc1Cl [Compound 167, 2,6-dichloro-4-(3-(4-((dibenzylamino)methyl)benzyl-oxy)-1,2,4-triazin-6-yl)phenol] | 6.61 µM
Cc1cncc(Oc2cccc(CN(C)Cc3ccc(COc4ncc(-c5cc(Cl)c(O)c(Cl)c5)nn4)cc3)c2)n1 [Compound 203, 2,6-dichloro-4-(3-(4-((methyl(3-(6-methylpyrazin-2-yloxy)benzyl)amino)methyl)benzyloxy)-1,2,4-triazin-6-yl)phenol] | 2.43 µM
CN(C)CCCOc1ccc(CN(C)Cc2ccc(COc3ncc(-c4cc(Cl)c(O)c(Cl)c4)nn3)cc2)cc1 [Compound 199, 2,6-dichloro-4-(3-(4-(((4-(3-(dimethylamino)propoxy)benzyl)(methyl)amino)methyl)benzyl-oxy)-1,2,4-triazin-6-yl)phenol] | 7.54 µM
Oc1c(Cl)cc(-c2cnc(C(O)(c3ccccc3)c3ccccc3)nn2)cc1Cl [Compound 36, 2,6-dichloro-4-(3-(hydroxydiphenylmethyl)-1,2,4-triazin-6-yl)phenol] | 7.67 µM
Oc1c(Cl)cc(-c2cnc(OCc3ccc(CN4CCc5ccccc5C4c4ccncc4)cc3)nn2)cc1Cl (centres unmarked) [Compound 193] | 3.92 µM
Cc1ccc(C(C)C)c(OCc2ncc(-c3cc(Br)c(O)c(Br)c3)nn2)c1 [Compound 57, 2,6-dibromo-4-(3-((2-isopropyl-5-methylphenoxy)methyl)-1,2,4-triazin-6-yl)phenol] | 26.8 µM
COc1ccc(CCOc2ncc(-c3cc(Br)c(O)c(Br)c3)nn2)cc1 [Compound 97, 2,6-dibromo-4-(3-(4-methoxyphenethoxy)-1,2,4-triazin-6-yl)phenol] | 0.45 µM
CC(C)(c1ccccc1)c1ccc(OCc2ncc(-c3cc(Br)c(O)c(Br)c3)nn2)cc1 [Compound 35, 2,6-dibromo-4-(3-((4-(2-phenylpropan-2-yl)phenoxy)methyl)-1,2,4-triazin-6-yl)phenol] | 7.31 µM
Oc1c(Br)cc(-c2cnc(OCc3ccc(C(F)(F)F)cc3)nn2)cc1Br [Compound 16, 2,6-dibromo-4-(3-(4-(trifluoromethyl)benzyloxy)-1,2,4-triazin-6-yl)phenol] | 1.07 µM
Oc1c(Cl)cc(-c2cnc(OCc3ccc(F)cc3)nn2)cc1Cl [Compound 146, 2,6-dichloro-4-(3-(4-fluorobenzyloxy)-1,2,4-triazin-6-yl)phenol] | 5.21 µM
Oc1c(Br)cc(-c2cnc(C(O)(c3ccccc3)c3ccccc3)nn2)cc1Br [Compound 32, 2,6-dibromo-4-(3-(hydroxydiphenylmethyl)-1,2,4-triazin-6-yl)phenol] | 4.93 µM
Cc1ccc(C)c(OCc2ncc(-c3cc(Br)c(O)c(Br)c3)nn2)c1 [Compound 52, 2,6-dibromo-4-(3-((2,5-dimethylphenoxy)methyl)-1,2,4-triazin-6-yl)phenol] | 19.8 µM
Oc1c(Br)cc(-c2cnc(COc3cccc4ccccc34)nn2)cc1Br [Compound 33, 2,6-Dibromo-4-(3-((naphthalen-1-yloxy)methyl)-1,2,4-triazin-6-yl)phenol] | 5.39 µM
CN(Cc1ccc(COc2ncc(-c3cc(Cl)c(O)c(Cl)c3)nn2)cc1)CC(O)c1ccccc1 (centres unmarked) [Compound 161, 2,6-dichloro-4-(3-(4-(((2-hydroxy-2-phenylethyl)(methyl)amino)methyl)benzyloxy)-1,2,4-triazin-6-phenol, formate salt] | 18.3 µM
CN(Cc1ccc(COc2ncc(-c3cc(Cl)c(O)c(Cl)c3)nn2)cc1)Cc1ccc(OCCN2CCOCC2)cc1 [Compound 214, 2,6-dichloro-4-(3-(4-((methyl(4-(2-morpholinoethoxy)benzyl)amino)methyl)benzyloxy)-1,2,4-triazin-6-yl)phenol] | 5.19 µM
